Read-outs that look alike come from different tables or passages of the source. Values belong to the compound of their own block, whether it stands above or below them. Residues, ends and D or L forms follow the SMILES beside them.
Assays:
[1] = system: green fluorescent protein (GFP) in GFP-expressing endothelial cells; test: GFP knockdown in GFP-expressing endothelial cells; assay type: cell-based
Method: GFP-expressing endothelial cells (ATCC) were grown in Dulbecco's Modified Eagle's Medium supplemented with 10% fetal bovine serum. GFP siRNA, 5′-GACGUAAACGGCCACAAGUUC N6-3′ (SEQ ID NO:26) (Dharmacon), was conjugated to fluorescently labeled peptide (containing a free carboxyl group) through EDC chemistry.
A 10 mM peptide solution was incubated with a 10 mM solution of N-(3-Dimethylaminopropyl)-N′-ethylcarbodiimide hydrochloride (EDAC, Sigma) and a 9.5 mM solution of N-Hydroxysulfosuccinimide sodium salt (NHS, Sigma) in equal parts in MES buffer (pH 5.5) for 15 minutes. The amine modified siRNA was then added to the mixture to conjugate the peptide to siRNA and allowed to mix overnight.
The peptide-siRNA complex was added to the appropriate cell culture media to obtain a final concentration of 1 μM siRNA. The media along with peptide-siRNA was then added to the cells and allowed to incubate for 48 hours. Cells were imaged using confocal microscopy and image analysis was performed using ImageJ to determine the overall fluorescence intensity for each cell.

[2] = system: human skin; test: Peptide penetration in human skin (confocal microscopy); assay type: in vitro ADME
Method: The ability of the SPACE peptide to penetrate human skin when removed from phage and conjugated to an exemplary small molecule in the form of a fluorescent tag was tested as follows. Full thickness human skin was obtained from the National Disease Research Interchange. […] Fluorescently labeled peptides, 200 μL of a 1 mg/mL solution, were placed in the donor compartment of the FDC. After 24 hours, the remaining solution in the donor compartment was removed and the FDC was dismantled. The skin sample was retrieved and rinsed with DI water to remove excess peptide or peptide complex on the surface of the skin.

[3] = system: porcine skin; test: Inulin permeability of porcine skin after co-incubation with peptide; assay type: in vitro ADME
[4] = system: human keratinocytes; test: MTT assay on keratinocyte cultures; assay type: cell-based; details: 0.1-1.0 mg/mL
Method: (a) Peptide internalization (percent of control) for control peptide and SPACE peptide at 4° C. and with the endocytosis inhibitors deoxy-D-glucose, chlorpromazine, nystatin, and EIPA in human keratinocytes. (b) Cell proliferation of human keratinocytes in the presence of control peptide (open bars) or SPACE peptide (closed bars) at 0.1 mg/mL and 1.0 mg/mL. Error cars indicate SD (N=4).

[5] = system: mouse skin; test: Peptide penetration into mouse skin in-vivo
Method: The ability of the SPACE peptide to penetrate mouse skin in-vivo was tested as follows. 200 μl of fluorescently labeled peptide (1 mg/ml) was applied on the skin of a mouse. Penetration was assessed at various time points by harvesting the skin, sectioning it and observing under a microscope.

[6] = system: porcine skin; assay type: in vitro ADME
Method: The ability of the SPACE peptide to carry macromolecular cargos across the SC was tested as follows. Full thickness porcine skin was obtained and prepared as described above. The peptide was first conjugated to the macromolecule as described in greater detail below and then the peptide-macromolecule complex was placed into the donor compartment of the FDC. After 24 hours, the remaining solution in the donor compartment was removed and the FDC was dismantled. The skin sample was retrieved and rinsed with DI water to remove excess peptide complex on the surface of the skin.
To conjugate the peptide to the macromolecule streptavidin, 80 μL of a 1 mg/mL biotinylated peptide solution was incubated with 20 μL of a 2 mg/mL streptavidin-Alexa Fluor 488 conjugate (Invitrogen) solution and incubated at room temperature for 30 minutes. The resulting solution was then placed into the donor compartment of the FDC. Skin samples were harvested after 24 hours and imaged as described above.
The ability of the SPACE peptide to carry quantum dots across the SC was also tested. For the delivery of quantum dots into the skin, 198 μL of a 100 ng/mL biotinylated peptide solution was incubated with 2 μL of QDot 525 streptavidin conjugate (Invitrogen) for 1 hour at room temperature. The 200 μL suspension was then placed into the donor compartment of the FDC. […]

[7] = system: porcine skin; test: Peptide penetration into porcine skin (confocal microscopy); assay type: in vitro ADME; details: 200 μL of 1 mg/mL, 24 hours
Method: The ability of the SPACE peptide to penetrate porcine skin when removed from phage was tested as follows. Full thickness porcine skin was obtained and prepared as described above. Fluorescently labeled peptides, 200 μL of a 1 mg/mL solution, were placed in the donor compartment of the FDC. After 24 hours, the remaining solution in the donor compartment was removed and the FDC was dismantled. The skin sample was retrieved and rinsed with DI water to remove excess peptide or peptide complex on the surface of the skin.

Compound: 5′-GACGUAAACGGCCACAAGUUC N6-3′ (GACGUAAACGGCCACAAGUUC; siRNA; 3' N6 group, conjugated to fluorescently labeled peptide by EDC chemistry, further chemistry not given here) [siRNA alone, GFP siRNA (Dharmacon)]
knockdown of GFP ([1]; 1 μM siRNA, 48 hours): no significant knockdown
knockdown of GFP when complexed with Lipofectamine ([1]; complexed with Lipofectamine, compared to no siRNA treatment): knockdown was significant

effect on inulin permeability [3]: only a modest increase
penetration into mouse skin in vivo after 30 minutes ([5]; mouse, in vivo): resulted in penetration
Compound: C[C@H](N)C(=O)N[C@H]1CSSC[C@@H](C(=O)NCC(=O)O)NC(=O)[C@H](CCC(N)=O)NC(=O)[C@H](Cc2c[nH]cn2)NC(=O)[C@H](CCC(N)=O)NC(=O)[C@H]([C@@H](C)O)NC(=O)[C@H](CO)NC(=O)CNC(=O)[C@H]([C@@H](C)O)NC1=O [SPACE peptide] (HELM PEPTIDE1{A.C.T.G.S.T.Q.H.Q.C.G}$PEPTIDE1,PEPTIDE1,2:R3-10:R3$$$V2.0; N-terminus and C-terminus assumed)
penetration/localization in human skin observed from the top [2]: high localization of the SPACE peptide within the corneocytes
toxicity to cells (MTT) [4]: not toxic
penetration into mouse skin in vivo after two hours ([5]; mouse, in vivo): significant penetration into the skin and localization in the deep dermis

Compound: Streptavidin not conjugated to SPACE peptide: streptavidin-Alexa Fluor 488 conjugate (Invitrogen) alone
penetration of Alexa Fluor 488 streptavidin into porcine skin [6]: minimal penetration into epidermis

penetration of fluorescently labeled peptide into porcine skin [7]: No significant penetration
penetration/localization in human skin observed from the top ([2]; top view looking down on SC, 24 hours): no significant penetration
penetration into mouse skin in vivo ([5]; 200 μl of 1 mg/ml topical): lack of skin penetration in vivo
Compound: C[C@H](N)C(=O)N[C@H]1CSSC[C@@H](C(=O)NCC(=O)O)NC(=O)[C@H](CO)NC(=O)[C@H](CCC(N)=O)NC(=O)[C@H]([C@@H](C)O)NC(=O)[C@H](CCC(N)=O)NC(=O)CNC(=O)[C@H](Cc2c[nH]cn2)NC(=O)[C@H]([C@@H](C)O)NC1=O [control peptide] (HELM PEPTIDE1{A.C.T.H.G.Q.T.Q.S.C.G}$PEPTIDE1,PEPTIDE1,2:R3-10:R3$$$V2.0; N-terminus and C-terminus assumed)
